Measured values reported in PubChem BioAssay AID328 (DTP/NCI, 2004).
Values joined by “and” are separate entries in the source; they are usually repeats but may differ in a detail not shown here. Identical values can stand only once. Toxic doses and inconclusive results are not listed.

Test system: BDF1 mice, P388 leukemia ip, median survival T/C
Test: NCI In Vivo Anticancer Drug Screen. Data for tumor model P388 Leukemia (intraperitoneal) in B6D2F1 (BDF1) mice
Details: endpoint: median survival time, higher = longer survival
In short: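 T/C = treated-group survival ÷ vehicle-control survival; tumour transplanted into mice before dosing.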

[1] = dose: 50.0 mg/kg/injection, schedule: Q04DX003 (ip), vehicle: saline
[2] = dose: 50.0 mg/kg/injection, schedule: Q01DX009 (ip), vehicle: saline
[3] = dose: 100.0 mg/kg/injection, schedule: Q01DX009 (ip), vehicle: saline
[4] = dose: 200.0 mg/kg/injection, schedule: Q01DX009 (ip), vehicle: saline
[5] = dose: 50.0 mg/kg/injection, schedule: Q01DX009 (ip), vehicle: saline with Tween-80
[6] = dose: 100.0 mg/kg/injection, schedule: Q01DX009 (ip), vehicle: saline with Tween-80
[7] = dose: 200.0 mg/kg/injection, schedule: Q01DX009 (ip), vehicle: saline with Tween-80
[8] = dose: 12.5 mg/kg/injection, schedule: Q01DX009 (ip), vehicle: saline with Tween-80
[9] = dose: 25.0 mg/kg/injection, schedule: Q01DX009 (ip), vehicle: saline with Tween-80
[10] = dose: 100.0 mg/kg/injection, schedule: Q01DX001 (ip), vehicle: saline with Tween-80
[11] = dose: 200.0 mg/kg/injection, schedule: Q01DX001 (ip), vehicle: saline with Tween-80
[12] = dose: 400.0 mg/kg/injection, schedule: Q01DX001 (ip), vehicle: saline with Tween-80
[13] = dose: 100.0 mg/kg/injection, schedule: Q04DX003 (ip), vehicle: saline with Tween-80
[14] = dose: 200.0 mg/kg/injection, schedule: Q04DX003 (ip), vehicle: saline with Tween-80
[15] = dose: 400.0 mg/kg/injection, schedule: Q04DX003 (ip), vehicle: saline with Tween-80
[16] = dose: 400.0 mg/kg/injection, schedule: Q01DX009 (ip), vehicle: saline with Tween-80

Compound: CCN(CC)P(=O)(N1CC1C)N1CC1C (configuration not stated)
- T/C (dose: 4.4 mg/kg/injection, schedule: Q01DX009 (ip), vehicle: saline): 109 % of control
- T/C (dose: 6.6 mg/kg/injection, schedule: Q01DX009 (ip), vehicle: saline): 109 % of control
- T/C (dose: 10.0 mg/kg/injection, schedule: Q01DX009 (ip), vehicle: saline): 104 % of control
- T/C (dose: 12.5 mg/kg/injection, schedule: Q04DX003 (ip), vehicle: saline): 116 % of control
- T/C (dose: 13.2 mg/kg/injection, schedule: Q01DX009 (ip), vehicle: saline): 118 % of control
- T/C (dose: 15.0 mg/kg/injection, schedule: Q01DX009 (ip), vehicle: saline): 113 % of control
- T/C (dose: 20.0 mg/kg/injection, schedule: Q01DX009 (ip), vehicle: saline): 157 % of control and 180 % of control
- T/C (dose: 25.0 mg/kg/injection, schedule: Q04DX003 (ip), vehicle: saline): 100 % of control
- T/C (dose: 30.0 mg/kg/injection, schedule: Q01DX009 (ip), vehicle: saline): 150 % of control
- T/C (dose: 33.0 mg/kg/injection, schedule: Q04DX003 (ip), vehicle: saline): 121 % of control
- T/C (dose: 45.0 mg/kg/injection, schedule: Q01DX009 (ip), vehicle: saline): 90 % of control
- T/C [1]: 113 % of control
- T/C (dose: 75.0 mg/kg/injection, schedule: Q04DX003 (ip), vehicle: saline): 169 % of control

Compound: O=[As]c1ccc(Br)cc1 (configuration not stated)
- T/C (dose: 0.5 mg/kg/injection, schedule: Q01DX009 (ip), vehicle: Klucel (hydroxypropylcellulose) (HPC)): 104 % of control
- T/C (dose: 1.0 mg/kg/injection, schedule: Q01DX009 (ip), vehicle: Klucel (hydroxypropylcellulose) (HPC)): 104 % of control
- T/C (dose: 2.0 mg/kg/injection, schedule: Q01DX009 (ip), vehicle: Klucel (hydroxypropylcellulose) (HPC)): 104 % of control

Compound: CNC(=O)c1nc(C)c(C)nc1OCc1ccccc1
- T/C (dose: 12.5 mg/kg/injection, schedule: Q01DX009 (ip), vehicle: saline): 100 % of control
- T/C (dose: 25.0 mg/kg/injection, schedule: Q01DX009 (ip), vehicle: saline): 95 % of control and 124 % of control
- T/C [2]: 97 % of control and 111 % of control
- T/C [1]: 111 % of control
- T/C [3]: 106 % of control and 109 % of control
- T/C (dose: 100.0 mg/kg/injection, schedule: Q04DX003 (ip), vehicle: saline): 100 % of control
- T/C [4]: 91 % of control
- T/C (dose: 200.0 mg/kg/injection, schedule: Q04DX003 (ip), vehicle: saline): 96 % of control
- T/C (dose: 300.0 mg/kg/injection, schedule: Q01DX009 (ip), vehicle: saline): 97 % of control
- T/C (dose: 400.0 mg/kg/injection, schedule: Q01DX009 (ip), vehicle: saline): 119 % of control
- T/C (dose: 400.0 mg/kg/injection, schedule: Q04DX003 (ip), vehicle: saline): 88 % of control

Compound: CC(C)=CCOc1ccc(C(=O)/C=C/c2ccc(O)cc2)c(O)c1
- T/C (dose: 1.25 mg/kg/injection, schedule: Q01DX009 (ip), vehicle: Klucel (hydroxypropylcellulose) (HPC)): 93 % of control
- T/C (dose: 2.5 mg/kg/injection, schedule: Q01DX009 (ip), vehicle: Klucel (hydroxypropylcellulose) (HPC)): 115 % of control
- T/C (dose: 5.0 mg/kg/injection, schedule: Q01DX009 (ip), vehicle: Klucel (hydroxypropylcellulose) (HPC)): 109 % of control
- T/C (dose: 10.0 mg/kg/injection, schedule: Q01DX009 (ip), vehicle: Klucel (hydroxypropylcellulose) (HPC)): 107 % of control
- T/C (dose: 20.0 mg/kg/injection, schedule: Q01DX009 (ip), vehicle: Klucel (hydroxypropylcellulose) (HPC)): 97 % of control
- T/C (dose: 40.0 mg/kg/injection, schedule: Q01DX009 (ip), vehicle: Klucel (hydroxypropylcellulose) (HPC)): 98 % of control

Compound: Fc1ccc(NC(=S)SCc2ccc3c(c2)OCO3)cc1F
- T/C (dose: 50.0 mg/kg/injection, schedule: Q01DX009 (ip), vehicle: saline + alcohol): 116 % of control
- T/C [5]: 109 % of control
- T/C (dose: 100.0 mg/kg/injection, schedule: Q01DX009 (ip), vehicle: saline + alcohol): 116 % of control
- T/C [6]: 116 % of control
- T/C [7]: 155 % of control

Compound: CSC/C(=N\Nc1ccc([N+](=O)[O-])cc1[N+](=O)[O-])c1ccccc1
- T/C (dose: 1.56 mg/kg/injection, schedule: Q01DX001 (ip), vehicle: saline with Tween-80): 100 % of control
- T/C (dose: 3.13 mg/kg/injection, schedule: Q01DX001 (ip), vehicle: saline with Tween-80): 104 % of control
- T/C (dose: 6.25 mg/kg/injection, schedule: Q01DX001 (ip), vehicle: saline with Tween-80): 114 % of control

Compound: COc1cc([C@@H]2c3cc4c(c(O)c3C[C@H]3COC(=O)[C@@H]32)OCO4)cc(OC)c1O
- T/C (dose: 0.12 mg/kg/injection, schedule: Q01DX010 (ip), vehicle: carboxymethylcellulose (CMC)): 105 % of control
- T/C (dose: 0.25 mg/kg/injection, schedule: Q01DX010 (ip), vehicle: carboxymethylcellulose (CMC)): 100 % of control
- T/C (dose: 0.5 mg/kg/injection, schedule: Q01DX001 (ip), vehicle: other): 121 % of control
- T/C (dose: 0.5 mg/kg/injection, schedule: Q01DX010 (ip), vehicle: other): 118 % of control
- T/C (dose: 1.0 mg/kg/injection, schedule: Q01DX010 (ip), vehicle: carboxymethylcellulose (CMC)): 100 % of control and 123 % of control
- T/C (dose: 30.0 micrograms/kg/injection, schedule: Q01DX010 (ip), vehicle: other): 110 % of control
- T/C (dose: 60.0 micrograms/kg/injection, schedule: Q01DX010 (ip), vehicle: other): 110 % of control

Compound: NC(N)=NCCNC(=O)C1CCC(N)C1 (configuration not stated)
- T/C (dose: 0.08 mg/kg/injection, schedule: Q01DX009 (ip), vehicle: saline): 97 % of control
- T/C (dose: 0.16 mg/kg/injection, schedule: Q01DX009 (ip), vehicle: saline): 97 % of control
- T/C (dose: 0.32 mg/kg/injection, schedule: Q01DX009 (ip), vehicle: saline): 99 % of control
- T/C (dose: 0.63 mg/kg/injection, schedule: Q01DX009 (ip), vehicle: saline): 100 % of control

Compound: CN1CCN(C2=Nc3ccccc3Cc3ccccc32)CC1
- T/C [8]: 103 % of control
- T/C [9]: 102 % of control
- T/C [5]: 105 % of control and 108 % of control

Compound: Cc1nnc2c(=O)[nH]ccn12
- T/C [10]: 106 % of control
- T/C [11]: 100 % of control
- T/C [12]: 103 % of control

Compound: NC(=O)Nc1cccc2ccccc12
- T/C (dose: 100.0 mg/kg/injection, schedule: Q04DX003 (ip), vehicle: Klucel (hydroxypropylcellulose) (HPC)): 88 % of control
- T/C (dose: 200.0 mg/kg/injection, schedule: Q01DX009 (ip), vehicle: gum acacia): 92 % of control
- T/C (dose: 200.0 mg/kg/injection, schedule: Q04DX003 (ip), vehicle: Klucel (hydroxypropylcellulose) (HPC)): 92 % of control
- T/C (dose: 400.0 mg/kg/injection, schedule: Q01DX009 (ip), vehicle: gum acacia): 96 % of control

Compound: Cc1cc2nc3c(=O)[nH]c(=O)nc-3n(CC(O)C(O)C(O)CO)c2cc1C (configuration not stated)
- T/C [8]: 102 % of control
- T/C [9]: 94 % of control
- T/C [5]: 107 % of control

Compound: CC(NC(=O)/C=C\C(=O)O)c1ccccc1 (configuration not stated)
- T/C [13]: 100 % of control
- T/C [14]: 91 % of control
- T/C [15]: 112 % of control

Compound: CCc1noc(CC)c1CC1=C2CCC3(C)CCC(C)(C)CC3C2(C)CCC1=O (configuration not stated)
- T/C [10]: 95 % of control
- T/C [11]: 90 % of control
- T/C [12]: 90 % of control

Compound: COc1cc2c(cc1OC)C(CN)C2 (configuration not stated)
- T/C [2]: 98 % of control
- T/C [3]: 96 % of control
- T/C [4]: 98 % of control

Compound: O=C1c2ccccc2-c2ccc(Br)c3cccc1c23
- T/C (dose: 50.0 mg/kg/injection, schedule: Q01DX009 (ip), vehicle: Klucel (hydroxypropylcellulose) (HPC)): 100 % of control
- T/C (dose: 100.0 mg/kg/injection, schedule: Q01DX009 (ip), vehicle: Klucel (hydroxypropylcellulose) (HPC)): 100 % of control
- T/C (dose: 200.0 mg/kg/injection, schedule: Q01DX009 (ip), vehicle: Klucel (hydroxypropylcellulose) (HPC)): 100 % of control

Compound: COc1ccc2cc(Br)ccc2c1
- T/C [13]: 95 % of control
- T/C [14]: 109 % of control
- T/C [15]: 100 % of control

Compound: COc1ccc(OC)c(C(=O)CC(O)(C(F)(F)F)C(F)(F)F)c1
- T/C [6]: 95 % of control
- T/C [13]: 120 % of control
- T/C [7]: 108 % of control
- T/C [14]: 110 % of control
- T/C [16]: 104 % of control
- T/C [15]: 100 % of control

Compound: Cc1ccc(-c2c(O)c(Br)c(-c3ccc(C)cc3C)c(O)c2Br)c(C)c1
- T/C [6]: 100 % of control
- T/C [7]: 100 % of control
- T/C [16]: 100 % of control

Compound: COC1=C(C2(O)C(=O)N(C)c3ccccc32)C(=O)C(OC)=C(C2(O)C(=O)N(C)c3ccccc32)C1=O (configuration not stated)
- T/C [10]: 91 % of control
- T/C [11]: 89 % of control
- T/C [12]: 90 % of control
